From US20230242558A1, “NICOTINATE AND NICOTINAMIDE RIBOSIDE-BASED COMPOUNDS AND DERIVATIVES THEREOF” (New Frontier Bio, Inc., priority 2022, published 2023)

System: HaCaT cells
Assay: NAD assay in HaCaT cells, total NAD level normalized to protein
Type: cell-based
Details: 4 hours incubation, concentration not given
Protocol: The biological activity of certain compounds disclosed herein was determined using the following method: • 1. Plate HaCaT cells in 12-well tissue culture plates at a density of 200,000 cells per well in 0.75 mL DMEM growth medium. Incubate overnight at 37° C. in a incubator at 5% CO2. • 2. Next day, prepare dilutions of each compound in growth medium at the desired final concentration. • 3. Incubate cells as above for 4 hours. • 4. After the incubation, wash cell monolayers in each well with 200 uL PBS and add 200 uL 0.25% Trypsin. Let cells lift for 15 minutes. • 5. Once cells are lifted, collect cells into sterile 1.5 mL Eppendorf tube containing 400 uL of DMEM w/2% HI FBS. • 6. Centrifuge tubes for 500×g for 5 min. • 7. Aspirate supernatant and wash cells with 200 uL of cold PBS. • 8. Centrifuge tubes for 500×g for 5 min. • 9. Aspirate supernatant and add 400 μL of cold extraction buffer (provided in the NAD assay kit) and vortex each tube for 10 seconds. • 10. Centrifuge samples at 13,000×g for 10 min to remove insoluble material. • 11. Use a small aliquot of extract to determine total protein concentration by BCA protein assay kit. • 12. Deproteinize samples by filtering them through a 10 kDa cut-off spin filter. Centrifuge at 13,000×g for 10 min. • 13. After cell lysate is filtered, load 25 uL of samples to 96 well plate for NAD assay. • 14. Add 25 uL of extraction buffer to each well with samples to dilute them 1:2. Add 50 uL of standards to appropriate wells. • 15. Set up master reaction mix of cycling buffer and NAD cycling enzyme mix. Add 100 uL of mix to each well and incubate for […]. • 16. Add 10 uL of developer into each well. • 17. Let plate incubate at room temperature for 1 hr. • 18. Stop the reaction by adding 10 uL of stop solution into each well and mix well. • 19. Measure absorbance at 450 nm using plate reader. • 20. Plot standard curve and normalize data to determine total NAD level.

CC(C)Cc1ccc(C(C)C(=O)NCCNC(=O)c2cccnc2)cc1 (centres unmarked)
NAD+ level: 697 pmol/mg protein

COC(=O)c1ccc[n+]([C@@H]2O[C@H](COC(C)=O)[C@@H](OC(C)=O)[C@H]2OC(C)=O)c1
NAD+ level: 323 pmol/mg protein

CC(=O)OC[C@H]1O[C@@H]([n+]2cccc(C(=O)Sc3ccccc3)c2)[C@H](OC(C)=O)[C@@H]1OC(C)=O
NAD+ level: <1 pmol/mg protein

O=C(Sc1ccccc1)c1ccc[n+]([C@@H]2O[C@H](CO)[C@@H](O)[C@H]2O)c1
NAD+ level: <1 pmol/mg protein

CCOC(=O)c1ccc[n+]([C@@H]2O[C@H](COC(C)=O)[C@@H](OC(C)=O)[C@H]2OC(C)=O)c1
NAD+ level: 674 pmol/mg protein

CC(C)(C)OC(=O)c1ccc[n+]([C@@H]2O[C@H](COP(=O)([O-])O)[C@@H](O)[C@H]2O)c1
NAD+ level: <1 pmol/mg protein

CC(C)(C)OC(=O)c1ccc[n+]([C@@H]2O[C@H](CO)[C@@H](O)[C@H]2O)c1
NAD+ level: 1162 pmol/mg protein

O=C(Oc1ccc(/C=C/c2cc(OC(=O)c3cccnc3)cc(OC(=O)c3cccnc3)c2)cc1)c1cccnc1
NAD+ level: 616 pmol/mg protein

CC1CCC(C(C)C)C(OC(=O)c2cccnc2)C1 (centres unmarked)
NAD+ level: <1 pmol/mg protein

CCC(=O)OC[C@H]1O[C@@H]([n+]2cccc(C(=O)O)c2)[C@H](OC(=O)CC)[C@@H]1OC(=O)CC
NAD+ level: 667 pmol/mg protein

CC(C)(C)OC(=O)CCCCCCCCCCCCCCCCC(=O)NCCNC(=O)c1cccnc1
NAD+ level: 460 pmol/mg protein

[2H]c1nc([2H])c(C(=O)NCCCCCC[P+](c2ccccc2)(c2ccccc2)c2ccccc2)c([2H])c1[2H]
NAD+ level: 435 pmol/mg protein

O=C(Cc1ccccc1Nc1c(Cl)cccc1Cl)NCCNC(=O)c1cccnc1
NAD+ level: 338 pmol/mg protein

CC(=O)OC[C@H]1O[C@@H]([n+]2cccc(C(=O)OCc3ccccc3)c2)[C@H](OC(C)=O)[C@@H]1OC(C)=O
NAD+ level: 426 pmol/mg protein

O=C(O)c1ccc[n+]([C@@H]2O[C@H](COC(=O)c3cccnc3)[C@@H](OC(=O)c3cccnc3)[C@H]2OC(=O)c2cccnc2)c1
NAD+ level: 656 pmol/mg protein

O=C(OCc1ccccc1)c1ccc[n+]([C@@H]2O[C@H](CO)[C@@H](O)[C@H]2O)c1
NAD+ level: 463 pmol/mg protein

CC(=O)OC[C@H]1O[C@@H]([n+]2cccc(C(=O)O)c2)[C@H](OC(C)=O)[C@@H]1OC(C)=O
NAD+ level: 311 pmol/mg protein

CC(=O)OC[C@H]1O[C@@H]([n+]2cccc(C(=O)OC(C)(C)C)c2)[C@H](OC(C)=O)[C@@H]1OC(C)=O
NAD+ level: <1 pmol/mg protein

O=C(OCCO)c1cccnc1
NAD+ level: 501 pmol/mg protein

NCCNC(=O)c1cccnc1
NAD+ level: 587 pmol/mg protein

O=C(NCCNCCC[P+](c1ccccc1)(c1ccccc1)c1ccccc1)c1cccnc1
NAD+ level: 391 pmol/mg protein

O=C(NCCNCCCCCC[P+](c1ccccc1)(c1ccccc1)c1ccccc1)c1cccnc1
NAD+ level: 378 pmol/mg protein

O=C(Oc1ccc2c(c1)oc(=O)c1cc(O)ccc12)c1cccnc1
NAD+ level: 681 pmol/mg protein

O=C(OCCCCCC[P+](c1ccccc1)(c1ccccc1)c1ccccc1)c1cccnc1
NAD+ level: <1 pmol/mg protein

O=C(OCCOCCC[P+](c1ccccc1)(c1ccccc1)c1ccccc1)c1cccnc1
NAD+ level: <1 pmol/mg protein

O=C(OCCC[P+](c1ccccc1)(c1ccccc1)c1ccccc1)c1cccnc1
NAD+ level: 576 pmol/mg protein

O=C(NC[P+](c1ccccc1)(c1ccccc1)c1ccccc1)c1cccnc1
NAD+ level: 521 pmol/mg protein

O=C(OC[P+](c1ccccc1)(c1ccccc1)c1ccccc1)c1cccnc1
NAD+ level: 319 pmol/mg protein

O=C(NCC[P+](c1ccccc1)(c1ccccc1)c1ccccc1)c1cccnc1
NAD+ level: 466 pmol/mg protein

O=C(NCCC[P+](c1ccccc1)(c1ccccc1)c1ccccc1)c1cccnc1
NAD+ level: 560 pmol/mg protein

O=C(CCCCC[P+](c1ccccc1)(c1ccccc1)c1ccccc1)NCCNC(=O)c1cccnc1
NAD+ level: 607 pmol/mg protein

CCCCCCCCCCCCCCOC(=O)c1ccc[n+]([C@@H]2O[C@H](CO)[C@@H](O)[C@H]2O)c1
NAD+ level: <1 pmol/mg protein

CCCCCCCCCCCCCCOC(=O)c1ccc[n+]([C@@H]2O[C@H](COC(C)=O)[C@@H](OC(C)=O)[C@H]2OC(C)=O)c1
NAD+ level: <1 pmol/mg protein

CCCCCCCCCCCCCCOC(=O)c1ccc[n+]([C@@H]2O[C@H](COP(=O)([O-])O)[C@@H](O)[C@H]2O)c1
NAD+ level: 475 pmol/mg protein

O=C(OCC[P+](c1ccccc1)(c1ccccc1)c1ccccc1)c1cccnc1
NAD+ level: <1 pmol/mg protein

CCCCCCCCCCCCCCNC(=O)c1ccc[n+]([C@@H]2O[C@H](COC(C)=O)[C@@H](OC(C)=O)[C@H]2OC(C)=O)c1
NAD+ level: <1 pmol/mg protein

NCCOC(=O)c1cccnc1
NAD+ level: 562 pmol/mg protein

CCCC(=O)OC[C@H]1O[C@@H]([n+]2cccc(C(=O)O)c2)[C@H](OC(=O)CCC)[C@@H]1OC(=O)CCC
NAD+ level: 831 pmol/mg protein

CC1=C(/C=C/C(C)=C/C=C/C(C)=C/C(=O)NCCNC(=O)c2cccnc2)C(C)(C)CCC1
NAD+ level: 815 pmol/mg protein

CC(=O)OC[C@H]1O[C@@H]([n+]2cccc(C(=O)NCCCCCC[P+](c3ccccc3)(c3ccccc3)c3ccccc3)c2)[C@H](OC(C)=O)[C@@H]1OC(C)=O
NAD+ level: 565 pmol/mg protein

CC(=O)OC[C@H]1O[C@@H]([n+]2cccc(C(=O)NCCNC(=O)c3ccc[n+]([C@@H]4O[C@H](COC(C)=O)[C@@H](OC(C)=O)[C@H]4OC(C)=O)c3)c2)[C@H](OC(C)=O)[C@@H]1OC(C)=O
NAD+ level: 354 pmol/mg protein

CC(=O)OC[C@H]1O[C@@H]([n+]2cccc(C(=O)NCCNC(=O)CCCCC[P+](c3ccccc3)(c3ccccc3)c3ccccc3)c2)[C@H](OC(C)=O)[C@@H]1OC(C)=O
NAD+ level: 311 pmol/mg protein

CC(=O)OC[C@H]1O[C@@H]([n+]2cccc(C(=O)NCCC[P+](c3ccccc3)(c3ccccc3)c3ccccc3)c2)[C@H](OC(C)=O)[C@@H]1OC(C)=O
NAD+ level: 292 pmol/mg protein

O=C(NCCCCCC[P+](c1ccccc1)(c1ccccc1)c1ccccc1)c1ccc[n+]([C@@H]2O[C@H](CO)[C@@H](O)[C@H]2O)c1
NAD+ level: 285 pmol/mg protein

CC(C)Cc1ccc(C(C)C(=O)OCCOC(=O)c2cccnc2)cc1 (centres unmarked)
NAD+ level: 539 pmol/mg protein

CCCCCc1cc(OC(=O)c2cccnc2)c2c(c1)OC(C)(CCC=C(C)C)C=C2 (centres unmarked)
NAD+ level: 375 pmol/mg protein

O=C(OCCOCCCCCC[P+](c1ccccc1)(c1ccccc1)c1ccccc1)c1cccnc1
NAD+ level: 230 pmol/mg protein

O=C(CCCCC[P+](c1ccccc1)(c1ccccc1)c1ccccc1)NCCOC(=O)c1cccnc1
NAD+ level: <1 pmol/mg protein

O=C(NCc1ccccc1)c1ccc[n+]([C@@H]2O[C@H](CO)[C@@H](O)[C@H]2O)c1
NAD+ level: 274 pmol/mg protein

O=C(CCCC[P+](c1ccccc1)(c1ccccc1)c1ccccc1)NCCNC(=O)c1cccnc1
NAD+ level: 495 pmol/mg protein

O=C(CCCC[P+](c1ccccc1)(c1ccccc1)c1ccccc1)NCCOC(=O)c1cccnc1
NAD+ level: 508 pmol/mg protein

O=C(OCCOCCCCCCCCC[P+](c1ccccc1)(c1ccccc1)c1ccccc1)c1cccnc1
NAD+ level: <1 pmol/mg protein

O=C(NCCNCCCCCCCCC[P+](c1ccccc1)(c1ccccc1)c1ccccc1)c1cccnc1
NAD+ level: 395 pmol/mg protein

CCCCCCCCCCCCCCNC(=O)c1ccc[n+]([C@@H]2O[C@H](CO)[C@@H](O)[C@H]2O)c1
NAD+ level: <1 pmol/mg protein

CC(=O)OC[C@H]1O[C@@H]([n+]2cccc(C(=O)OCCOC(=O)c3ccc[n+]([C@@H]4O[C@H](COC(C)=O)[C@@H](OC(C)=O)[C@H]4OC(C)=O)c3)c2)[C@H](OC(C)=O)[C@@H]1OC(C)=O
NAD+ level: 655 pmol/mg protein

CC(=O)OC[C@H]1O[C@@H]([n+]2cccc(C(=O)OC3CC(C)CCC3C(C)C)c2)[C@H](OC(C)=O)[C@@H]1OC(C)=O (some centres unmarked)
NAD+ level: 258 pmol/mg protein

CC1CCC(C(C)C)C(OC(=O)c2ccc[n+]([C@@H]3O[C@H](CO)[C@@H](O)[C@H]3O)c2)C1 (some centres unmarked)
NAD+ level: 464 pmol/mg protein

CC(=O)Oc1cc(/C=C/c2ccc(OC(=O)c3cccnc3)cc2)cc(OC(C)=O)c1
NAD+ level: 122 pmol/mg protein

O=C(Oc1ccc(/C=C/c2cc(O)cc(O)c2)cc1)c1ccc[n+]([C@@H]2O[C@H](CO)[C@@H](O)[C@H]2O)c1
NAD+ level: 94 pmol/mg protein

CC(=O)OC[C@H]1O[C@@H]([n+]2cccc(C(=O)Oc3ccc(/C=C/c4cc(OC(C)=O)cc(OC(C)=O)c4)cc3)c2)[C@H](OC(C)=O)[C@@H]1OC(C)=O
NAD+ level: <1 pmol/mg protein

CC1CCC(C(C)C)C(OC(=O)c2ccc[n+]([C@@H]3O[C@H](COP(=O)([O-])O)[C@@H](O)[C@H]3O)c2)C1 (some centres unmarked)
NAD+ level: 472 pmol/mg protein

O=C(Oc1cc(OC(=O)c2cccnc2)c2c(=O)c(O)c(-c3ccc(OC(=O)c4cccnc4)c(OC(=O)c4cccnc4)c3)oc2c1)c1cccnc1
NAD+ level: 328 pmol/mg protein
